This is an account of results in ChEMBL document CHEMBL5543153, “Discovery of a Potent Dual Son of Sevenless 1 (SOS1) and Epidermal Growth Factor Receptor (EGFR) Inhibitor for the Treatment of Prostate Cancer” (J Med Chem, 2024).

A short description of series [1]: Toxicity in BALB/c mouse xenografted with human PC-3 cells assessed as change in creatinine level at 5 mg/kg,ip administrated once every 4 days for 24 days by automatic biochemical analyzer. Type of series: organism-based. As to conditions: in vivo, 576 h, time 24 day. Background: Xenograft models place foreign cells or tissue in a host animal.
Series [2] concerns HUVEC. Nature of the series: Inhibition of cell migration in HUVEC cells assessed as reduction in invasion index at 0.5 to 12.5 uM measured after 48 hrs by crystal violet staining based transwell invasion assay. As to conditions: Homo sapiens, dose 0.5-12.5 µM. Type of series: functional.
Series [3] deals with PC-3. Nature of the series: Induction of cell cycle arrest in human PC-3 cells assessed as downregulation of cyclin D1 expression by Western blotting analysis. Type of series: functional, cell-based. (In western blotting, separated proteins are transferred to a membrane and probed.)
In series [4] the test system is PC-3. Nature of the series: Induction of cell cycle arrest in human PC-3 cells assessed as accumulation of cells at G1 phase at 0.5 uM by PI staining based flow cytometry (reference value: 75.66%). Type of series: functional.
Series [5] concerns PC-3. Nature of the series: Antitumor activity against human PC-3 cells xenografted in BALB/c mouse assessed as reduction in tumor volume at 5 mg/kg,ip administrated once every 4 days for 24 days. Type of series: functional, organism-based. As to conditions: time 24.0 day.
The test system of series [6] is PC-3. As to the kind of experiment: Induction of apoptosis in human PC-3 cells assessed as early apoptotic cells at 12.5 uM by Annexin V-FITC staining based flow cytometry (reference value: 2.64%). Type of series: functional. Background: In flow cytometry, cells or beads pass a laser one at a time.
Series [7] can be described thus: Toxicity in BALB/c mouse xenografted with human PC-3 cells assessed as change in blood urea nitrogen level at 20 mg/kg,ip administrated once every 4 days for 24 days by automatic biochemical analyzer. Type of series: organism-based. As to conditions: in vivo, 576 h, time 24 day.
In series [8] the test system is PC-3. Nature of the series: Induction of apoptosis in human PC-3 cells assessed as upregulation of cleaved caspase-3 expression by Western blotting analysis. Type of series: functional, cell-based.
For series [9], the system named is PC-3. As to the kind of experiment: Induction of cell cycle arrest in human PC-3 cells assessed as accumulation of cells at S phase at 0.5 uM by PI staining based flow cytometry (reference value: 16.58%). Type of series: functional.
For series [10], the target named is T1, Son of sevenless homolog 1 (Homo sapiens) (UniProt Q07889).
T1 sequence (whole entry): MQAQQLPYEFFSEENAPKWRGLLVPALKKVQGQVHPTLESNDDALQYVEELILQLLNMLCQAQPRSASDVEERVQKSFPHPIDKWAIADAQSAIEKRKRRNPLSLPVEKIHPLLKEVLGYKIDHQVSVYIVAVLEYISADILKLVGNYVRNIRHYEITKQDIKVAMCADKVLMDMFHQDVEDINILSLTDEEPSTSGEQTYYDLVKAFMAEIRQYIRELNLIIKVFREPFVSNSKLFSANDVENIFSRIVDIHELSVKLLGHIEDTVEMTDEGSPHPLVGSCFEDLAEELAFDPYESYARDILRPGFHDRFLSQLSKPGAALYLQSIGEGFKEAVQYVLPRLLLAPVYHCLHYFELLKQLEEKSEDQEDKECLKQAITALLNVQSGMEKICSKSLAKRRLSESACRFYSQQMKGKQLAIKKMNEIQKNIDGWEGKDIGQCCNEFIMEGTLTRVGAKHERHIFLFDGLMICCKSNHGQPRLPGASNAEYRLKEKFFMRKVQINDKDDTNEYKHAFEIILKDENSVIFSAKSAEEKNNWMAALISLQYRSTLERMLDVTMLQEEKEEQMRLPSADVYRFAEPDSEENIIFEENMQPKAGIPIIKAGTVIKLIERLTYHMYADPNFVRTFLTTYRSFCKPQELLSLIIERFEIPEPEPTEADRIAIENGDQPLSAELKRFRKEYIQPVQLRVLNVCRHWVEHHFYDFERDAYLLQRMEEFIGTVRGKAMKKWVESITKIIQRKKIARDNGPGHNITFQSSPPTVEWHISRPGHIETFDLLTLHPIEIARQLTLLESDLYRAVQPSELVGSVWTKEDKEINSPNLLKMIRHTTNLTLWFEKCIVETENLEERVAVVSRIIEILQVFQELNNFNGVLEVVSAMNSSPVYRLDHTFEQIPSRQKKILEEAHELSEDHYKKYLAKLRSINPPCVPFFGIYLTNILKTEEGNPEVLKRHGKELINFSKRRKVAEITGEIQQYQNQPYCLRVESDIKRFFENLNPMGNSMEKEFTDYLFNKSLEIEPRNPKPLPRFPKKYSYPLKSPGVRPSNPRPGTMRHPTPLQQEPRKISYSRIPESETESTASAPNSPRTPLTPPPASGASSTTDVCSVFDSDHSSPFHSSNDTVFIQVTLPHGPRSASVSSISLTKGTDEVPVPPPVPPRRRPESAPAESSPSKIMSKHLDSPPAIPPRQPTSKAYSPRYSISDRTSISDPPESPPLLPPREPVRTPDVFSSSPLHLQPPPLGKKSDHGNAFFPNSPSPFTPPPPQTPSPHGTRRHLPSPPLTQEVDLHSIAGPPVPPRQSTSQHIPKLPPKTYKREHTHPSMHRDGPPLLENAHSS
As to the kind of experiment: Inhibition of SOS1 in human PC-3 cells assessed as downregulation of RAS-GTP expression at 12.5 uM incubated for 15 mins by Western blotting analysis. Type of series: cell-based.

Series [11] deals with PC-3. As to the kind of experiment: Induction of apoptosis in human PC-3 cells assessed as viable cells at 12.5 uM by Annexin V-FITC staining based flow cytometry (reference value: 94.9%). Type of series: functional. To be noted: read-out: Activity.
Series [12] has as its system PC-3. Nature of the series: Antitumor activity against human PC-3 cells xenografted in BALB/c mouse assessed as reduction in tumor weight at 20 mg/kg,ip administrated once every 4 days for 24 days. Type of series: functional, organism-based. As to conditions: time 24.0 day.
Series [13] deals with PC-3. As to the kind of experiment: Antitumor activity against human PC-3 cells xenografted in BALB/c mouse assessed as increase in apoptosis in tumor tissue at ip administrated once every 4 days for 24 days by TUNEL staining based immunohistochemical analysis. As to conditions: time 24.0 day. Type of series: functional, organism-based.
Series [14] has as its system HUVEC. As to the kind of experiment: Antiangiogenic activity in HUVEC cells assessed as reduction in total branching length at 0.5 to 12.5 uM incubated for 8 hrs by matrigel based microscopic analysis. To be noted: Homo sapiens, dose 0.5-12.5 µM. Type of series: functional, cell-based.
In series [15] the test system is HUVEC. Nature of the series: Antiangiogenic activity in HUVEC cells assessed as reduction in tube master junction at 0.5 to 12.5 uM incubated for 8 hrs by matrigel based microscopic analysis. Type of series: functional, cell-based. As to conditions: Homo sapiens, dose 0.5-12.5 µM.
For series [16], the system named is PC-3. Nature of the series: Induction of cell cycle arrest in human PC-3 cells assessed as accumulation of cells at G1 phase at 12.5 uM by PI staining based flow cytometry (reference value: 75.66%). Type of series: functional.
A short description of series [17]: Toxicity in BALB/c mouse xenografted with human PC-3 cells assessed as change in body weight at 5 mg/kg,ip administrated once every 4 days for 24 days. Type of series: organism-based. To be noted: in vivo, 576 h, time 24 day.
Series [18] addresses T1, Son of sevenless homolog 1 (Homo sapiens). As to the kind of experiment: Inhibition of SOS1 in human PC-3 cells assessed as downregulation of ERK phosphorylation at 0.5 uM incubated for 15 mins by Western blotting analysis. Type of series: cell-based.
Series [19] has the same target. Nature of the series: Inhibition of human recombinant SOS1 at 10 uM relative to control.
For series [20], the system named is PC-3. As to the kind of experiment: Induction of apoptosis in human PC-3 cells assessed as late apoptotic cells at 0.5 uM by Annexin V-FITC staining based flow cytometry (reference value: 1.93%). Type of series: functional.
Series [21] in a line: Toxicity in BALB/c mouse xenografted with human PC-3 cells assessed as heart pathological change at 5 mg/kg,ip administrated once every 4 days for 24 days by hematoxylin and eosin staining based analysis. Type of series: organism-based. To be noted: in vivo, 576 h, time 24 day.
Series [22] concerns HUVEC. As to the kind of experiment: Antiangiogenic activity in HUVEC cells assessed as reduction of node at 0.5 to 12.5 uM incubated for 8 hrs by matrigel based microscopic analysis. Type of series: functional, cell-based. To be noted: Homo sapiens, dose 0.5-12.5 µM.

Active and inactive are the calls of the source. The rule behind the calls is not given here.

With `COc1cc2ncnc(N[C@H](C)c3cccc(F)c3)c2cc1OC1CCOCC1`, the Activity result in [1] is “Non-Toxic”; in [3], “Dose-Dependent Effect”; in series [4] it was 79.45%; in series [6], 21.5%; in series [7] it was “Non-Toxic”; in series [8] it was “Dose-Dependent Effect”. The Activity in series [9] is 10.84%; in [13], “Dose-Dependent Effect”; in series [16], 87.38%; in series [17], “Toxic”; in series [20], 2.74%; in series [21], “Toxic”. The inhibition result in series [2], in series [10] and in series [18] was “Active” throughout. Besides, the result in series [5], in series [12], in series [14], in series [15] and in [22] was Active. Besides, the viability at 12.5 µM in series [11] turned out to be 74.3%. Also, the inhibition in [19] worked out at 97%.

In general, inhibition refers to the relative decrease from the control value, in per cent.
